From patent US20210030650A1, “USE OF A NOVEL COMPOSITION FOR PREVENTING OR SLOWING DOWN THE APPEARANCE OF UNSIGHTLY SIGNS RELATING TO THE PRESENCE OF EXCESS SEBUM” (SOCIETE D'EXPLOITATION DE PRODUITS POUR LES INDUSTRIES …, priority 2018, published 2021)
Read-outs that look alike come from different tables or passages of the source. Blank lines part the entries; values can stand above or below the compound they belong to.

Legend:
lipase = experiment: Antilipase activity, in tubo method (1,2-diglyceride to glycerol, absorbance at 570 nm); format: biochemical; conditions: for % inhibition of the lipase: Table 11 experiment
Method: This involves studying the ability of a composition to […] and regulate the activity of the lipase enzyme by an in tubo method, said enzyme having an inflammatory action.
The samples in the evaluation test are placed in tubo in the presence of lipase and 1,2-diglyceride and the absorbance of the samples is measured with a spectrophotometer at the wavelength 570 nm as soon as they are prepared and then after 60 minutes of incubation at 37° C., under the same spectral conditions. By virtue of a range of glycerol, the lipase activity of the samples can be calculated, as well as the percentage of inhibition, according to the following formulae:
Lipase activity=(amount of glycerol formed between 0 and 60 minutes)/(60 minutes×sample volume)
Percentage of inhibition=100×[(lipase activity of the control group)−(lipase activity of the test product)]/(lipase activity of the control group).

[1] = test system: sebocytes of the SEBO662AR line; experiment: Overproduction of lipids by testosterone-stimulated sebocytes (Bodipy lipid droplet imaging, standardized by nuclei count); format: cell-based
Source text: The imbalance in the cutaneous microbiota occurs in particular when the proliferation of Propionibacterium acnes is observed. In this case also, Propionibacterium acnes induces inflammation of the skin, on the one hand by inducing the overproduction of lipids by sebocytes and, on the other hand, by producing a lipase which converts triglycerides into free fatty acids, which are irritating and chemotactic for neutrophils.
The effect of the composition (C1A) on the overproduction of lipids was studied on sebocytes of the SEBO662AR line (Bioalternatives line) sensitive to stimuli, such as testosterone, to produce lipids.
The sebocytes were first of all treated for 4 hours with the composition to be tested (or a positive reference). The testosterone was then added for 7 days to the culture medium, with renewal of the treatments and of the stimulation after 3 days. The formation of lipid droplets was detected by imaging using the Bodipy® fluorescent probe and the results were standardized by counting the nuclei with Hoechst staining.
The values are expressed as means+/−sem [standard error of the mean=standard deviation/root (number of values)].
% stimulation=100×[mean (cells+treatment)/mean (cells stimulated with testosterone)]
% inhibition=100×[mean (cells+treatment)−mean (cells stimulated with testosterone)/mean (untreated cells)−mean (cells stimulated with testosterone)]

[2] = Table 9, 1 nM testosterone, 0.006% compound
[3] = Table 9, 1 nM testosterone, 0.012% compound

Lipase activity (lipase; Table 10, positive reference, concentration not given, 60 minutes at 37° C., control 4.21): 2.11 +/− 0.01 mU/m1 | Lipase activity (lipase; Table 11, positive reference, concentration not given, control 4.72): 1.36 +/− 0.01 mU/ml
Structure (SMILES): O=C1O[C@H]([C@@H](O)CO)C(O)=C1O [Vitamin C, reference compound]

Lipase activity (lipase; Table 10, product at 1% by weight, 60 minutes at 37° C., control 4.21): 6.40 +/− 0.05 mU/m1
Structure (SMILES): CC(O)CO (stereo not drawn) [Propylene Glycol]

Lipase activity (lipase; Table 11, 0.00012% by weight, control 4.72): 4.65 +/− 0.03 mU/ml | Lipase activity (lipase; Table 11, 0.00024% by weight, control 4.72): 4.15 +/− 0.03 mU/ml | Lipase activity (lipase; Table 11, 0.0006% by weight, control 4.72): 2.16 +/− 0.07 mU/ml | Lipase activity (lipase; Table 11, 0.0012% by weight, control 4.72): 1.02 +/− 0.01 mU/ml | % inhibition of the lipase (lipase; 0.0006% by weight): 54% | % inhibition of the lipase (lipase; 0.0012% by weight): 78%
Structure (SMILES): O=C(O)CC(O)C(=O)OC1(C(=O)O)CC(OC(=O)C=Cc2ccc(O)c(O)c2)C(OC(=O)C=Cc2ccc(O)c(O)c2)C(OC(=O)C=Cc2ccc(O)c(O)c2)C1 (stereo not drawn) [Compound of formula (Ia), 1-O-Maloyl-3,4,5-tri-O-caffeoylquinic acid]
Lipids, % change vs testosterone-stimulated cells ([1]; Table 9, 1 nM testosterone, 0.0012% compound): 21 | Lipids, % change vs testosterone-stimulated cells [1, 2]: −34 | Lipids, % inhibition [1, 2]: 38% | Lipids, % change vs testosterone-stimulated cells [1, 3]: −29 | Lipids, % inhibition [1, 3]: 32%

Structure (SMILES): C[C@]12C=CC(=O)N[C@@H]1CC[C@@H]1[C@@H]2CC[C@]2(C)[C@@H](C(=O)Nc3cc(C(F)(F)F)ccc3C(F)(F)F)CC[C@@H]12 [dutasteride, reference compound]
inhibition at 1 µM ([1]; Table 8, cells stimulated with 1 nM testosterone, 1 μM dutasteride, read-out: Lipids (fluorescence intensity)/number of cells, % inhibition): 113% | Lipids (fluorescence intensity)/number of cells, % stimulation ([1]; Table 8, cells stimulated with 1 nM testosterone, 1 μM dutasteride, stimulated untreated cells = 100): 22% | Lipids, % change vs testosterone-stimulated cells ([1]; Table 9, 1 nM testosterone, 1 μM dutasteride): −82 | inhibition at 1 µM ([1]; Table 9, 1 nM testosterone, 1 μM dutasteride, read-out: Lipids, % inhibition): 91%
